According to patent US20130273057A1, “METHODS AND COMPOSITIONS FOR THE TREATMENT AND DIAGNOSIS OF VASCULAR INFLAMMATORY DISORDERS OR ENDOTHELIAL CELL DISORDERS” (Beth Israel Deaconess Medical Center, Inc., priority 2007, published 2013):

What was measured:
p120 = p120 tyrosine phosphorylation (4G10 immunoprecipitation/western blot); format: cell-based, human; settings: 10 μM SU5416 2 hrs
Experimental: (§1) FIGS. 14A-14C show transactivation of VEGFR is critical for tyrosine phosphorylation of VE-cadherin and p120 but not involved in MLC signaling. […] To preserve tyrosine phosphorylation, cells were then treated with 2 mM Na3VO4/2 mM H2O2 for 5 mins prior to lysis (Lampugnani, Corada et al., J. Cell Sci. 110 (Pt 17): 2065-2077, (1997)). A portion of the clarified total lysates was analyzed by western blot using an anti-phospho MLC antibody. The membrane was stripped and reblotted with anti GAPDH antibody. In FIG. 14B VE-cadherin was immunoprecipitated from lysates prepared in FIG. 14A. Tyrosine phosphorylation was detected by 4G10 antibody (FIG. 14B, i). The membrane was stripped and reblotted with an anti VE-cadherin antibody (FIG. 14B, ii). […] 4G10 immunoprecipitates were fractioned by SDS-PAGE, and p120 was detected by western blot. (−): No thrombin; (T): 5 U/ml thrombin. Molecular weights are in kDa.
(§2) (MLC) upon thrombin stimulation, a procedure derived from a published protocol was used (Ukropec et al., J. Biol. Chem. 275: 5983-5986, (2000)). […] Cells were then washed with PBS containing Mg^2+/Ca^2+ (GIBCO 14040-141) supplemented with 1 mM Na3VO4 and 0.2 mM H2O2 at room temperature for 5 mins. […] After SDS-PAGE, phosphorylation of VE-cadherin was detected by western blotting with the antibody 4G10. […]

HUVEC monolayer [1] = experiment: Permeability assay, FITC-BSA across HUVEC monolayer in Transwell; format: cell-based, human; settings: 10 μM SU5416 1 hour, 5 U/ml thrombin 10 mins
Experimental: FIG. 12 is a graph showing the thrombin induced-endothelial barrier dysfunction requires VEGFR activity. Confluent HUVEC monolayers were established in Transwell inserts. […] After 10 minutes of stimulation, fluorescein-labeled BSA that had diffused to the lower chamber was detected by fluorescence measurement and used as a surrogate marker of endothelial permeability. T: thrombin; SU: SU5416.
Permeability assay: 50,000 HUVECs were seeded in a Transwell insert (Corning 3496) in 100 μl of full EGM2-MV medium. EGM2-MV medium (600 μl) was added to the lower chamber. An endothelial monolayer was allowed to establish overnight. […] The inserts were then immediately transferred to a new well containing 500 μl PBS (with Mg^2+/Ca^2+; GIBCO 14040-141). After 10 mins of incubation, the Transwells were removed, and fluorescence of the PBS in the lower chamber was measured using a CytoFluor Multiwell Plate Reader (Series 4000) with the following settings: excitation λ 485/20 […], emission λ 530/25. Immunostaining: LabTek slide chambers (177429) were precoated with 50 μg/ml rat tail collagen type-1 (BD Biosciences, 354236) at 37° C. for 1 hour according to the manufacturer's protocol. […] Images were recorded using a fluorescence microscope (Nikon Corporation, Tokyo, Japan) and coupled to a Spot RT camera (Diagnostic Instruments Inc, Sterling Heights, Mich.). […]

MER = experiment: Thrombin-induced receptor tyrosine kinase phosphorylation in HUVECs (4G10 immunoprecipitation/western blot); format: cell-based, human; settings: confluent HUVECs pretreated with 10 μM SU5416 for 2 hrs; 5 U/ml thrombin
Excerpt: (§3) (−): No thrombin; (T): 5 U/ml thrombin. Molecular weights are in kDa.

Tie-1 endodomain = experiment: as above; format: cell-based, human; settings: confluent HUVECs pretreated with 10 μM SU5416 for 2 hrs; 5 U/ml thrombin
Excerpt: as §3

Tie-2 = experiment: as above; format: cell-based, human; settings: confluent HUVECs pretreated with 10 μM SU5416 for 2 hrs; 5 U/ml thrombin
Excerpt: as §3

VEGFR2 = experiment: as above; format: cell-based, human; settings: confluent HUVECs pretreated with 10 μM SU5416 for 2 hrs; 5 U/ml thrombin
Excerpt: as §3

VEGFR-2 = VEGFR-2 (Homo sapiens, UniProt P35968); settings: cited from earlier work
HUVEC monolayer [2] = experiment: Immunostaining of VE-cadherin and actin stress fiber, endothelial gap formation; format: cell-based, human; settings: 10 μM SU5416 2 hours
Experimental: VE-cadherin, actin stress fiber, and nuclei were stained with anti VE-cadherin antibody (green), phalloidin (red), and DAPI (blue), respectively.
EGM2-MV medium (600 μl) was added to the lower chamber. An endothelial monolayer was allowed to establish overnight. […] Each slide chamber was seeded with 200,000 HUVECs in one ml of EGM2-MV medium. An endothelial monolayer was allowed to established overnight. […] After 15 mins of stimulation, cells were fixed with 4% paraformaldehyde in PBS for 15 mins and permeabilized with 0.5% Triton X-100 in PBS for 5 mins. […] After 3 washes with 0.5% FBS/PBS, the samples were mounted in a drop of ProLong Gold antifade reagent with DAPI (Probes, P36931). Images were recorded using a fluorescence microscope (Nikon Corporation, Tokyo, Japan) and coupled to a Spot RT camera (Diagnostic Instruments Inc, Sterling Heights, Mich.). Western blotting: To examine the phosphorylation status of VE-Cadherin and myosin light chain

VE-cadherin = VE-cadherin tyrosine phosphorylation (immunoprecipitation/4G10 western blot); format: cell-based, human; settings: 10 μM SU5416 pretreatment
Experimental: as §1, §2

PDGF receptor = settings: relative to VEGFR-2; cited from earlier work
several xenograph models = settings: intra-peritoneal injection twice weekly, 50 mg/kg; cited from earlier work
FGF R = settings: cited from earlier work
[3] = tested on: PAR-1 induced vascular leak in mice; experiment: PAR-1 induced vascular leak in mouse ears (Evan blue); format: in vivo; settings: ear pretreated with 10 μl of 10 μM SU5416 for one hour; PAR-1 activating peptide and Evan blue by tail vein; about 15 minutes
Experimental: Then 20 μl of 5 mM PAR-1 activating peptide and 500 μl 0.1% Evan blue was injected into the mouse by tail vein injection. About 15 minutes later the extent of vascular leaks in the ears was documented by photography.

myosin light chain (MLC) = experiment: Western blot of MLC phosphorylation upon thrombin stimulation; format: cell-based, human; settings: 10 μM SU5416 pretreatment; thrombin 5 minutes; serine 19
Experimental: as §1, §2

[4] = thrombin or PAR-1 AP 30 μM, 15 mins

Chain of VEGFR-2 (P35968 20-1356, species assumed): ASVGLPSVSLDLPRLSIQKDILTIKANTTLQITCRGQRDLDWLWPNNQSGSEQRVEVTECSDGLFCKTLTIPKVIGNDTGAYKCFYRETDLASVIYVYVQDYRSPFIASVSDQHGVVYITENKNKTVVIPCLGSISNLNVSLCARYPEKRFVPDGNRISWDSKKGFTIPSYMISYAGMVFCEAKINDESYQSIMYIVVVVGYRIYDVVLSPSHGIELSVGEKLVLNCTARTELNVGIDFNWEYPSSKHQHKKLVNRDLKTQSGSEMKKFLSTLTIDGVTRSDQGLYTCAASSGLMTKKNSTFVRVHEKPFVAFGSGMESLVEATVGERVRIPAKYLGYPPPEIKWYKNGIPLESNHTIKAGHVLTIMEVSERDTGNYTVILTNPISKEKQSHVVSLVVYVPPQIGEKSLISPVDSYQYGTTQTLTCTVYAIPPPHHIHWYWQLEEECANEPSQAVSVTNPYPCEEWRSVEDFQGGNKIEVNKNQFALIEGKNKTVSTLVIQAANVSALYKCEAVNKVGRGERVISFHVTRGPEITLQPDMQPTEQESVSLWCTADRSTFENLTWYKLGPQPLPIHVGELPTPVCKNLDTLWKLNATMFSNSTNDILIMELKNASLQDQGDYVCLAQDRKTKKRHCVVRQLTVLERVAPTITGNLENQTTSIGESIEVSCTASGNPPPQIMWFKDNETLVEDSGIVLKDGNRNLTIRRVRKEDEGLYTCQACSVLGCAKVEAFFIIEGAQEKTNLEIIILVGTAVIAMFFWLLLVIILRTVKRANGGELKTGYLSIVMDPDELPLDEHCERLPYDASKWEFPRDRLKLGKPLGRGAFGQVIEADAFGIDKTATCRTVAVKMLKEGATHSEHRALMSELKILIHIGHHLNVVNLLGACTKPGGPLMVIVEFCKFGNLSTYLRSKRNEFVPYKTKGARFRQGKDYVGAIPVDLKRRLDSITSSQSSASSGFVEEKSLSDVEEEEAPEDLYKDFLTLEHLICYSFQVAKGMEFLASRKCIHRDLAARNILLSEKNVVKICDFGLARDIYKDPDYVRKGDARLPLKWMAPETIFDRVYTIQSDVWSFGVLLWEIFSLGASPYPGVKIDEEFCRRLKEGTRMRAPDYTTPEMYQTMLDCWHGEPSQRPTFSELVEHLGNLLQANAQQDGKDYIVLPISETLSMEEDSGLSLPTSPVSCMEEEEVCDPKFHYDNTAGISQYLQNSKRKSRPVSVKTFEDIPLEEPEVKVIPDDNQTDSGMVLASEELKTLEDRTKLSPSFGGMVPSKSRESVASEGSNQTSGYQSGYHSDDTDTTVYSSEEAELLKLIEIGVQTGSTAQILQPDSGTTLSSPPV

**Q.** Which results are given for `Cc1cc(C)c(/C=C2\C(=O)Nc3ccccc32)[nH]1` [SU5416]?
**A.** thrombin-induced tyrosine phosphorylation of p120 (p120): significantly blocked; thrombin-induced increase in endothelial permeability (HUVEC monolayer [1]): completely blocked; activation of MER by thrombin stimulation (MER): completely blocked; thrombin-induced phosphorylation of Tie-1 endodomain (Tie-1 endodomain): partially blocked; thrombin-induced phosphorylation of Tie-2 (Tie-2): partially blocked; phosphorylation of VEGFR2 induced by thrombin (VEGFR2): significantly attenuated; blocking VEGFR-2 function in cells (VEGFR-2): most effective; stress fiber formation induced by thrombin (HUVEC monolayer [2]; thrombin 15 mins): did not block; VE-cadherin disruption induced by thrombin or PAR-1 AP (HUVEC monolayer [2]; [4]): completely blocked; intercellular gap formation induced by thrombin or PAR-1 AP (HUVEC monolayer [2]; [4]): no intercellular gaps formed; thrombin-induced tyrosine phosphorylation of VE-cadherin (VE-cadherin): significantly blocked; inhibition of PDGF receptor in cell based assays, times less effective (PDGF receptor): 20 times; tumor progression in xenograph models (several xenograph models): effectively blocks; inhibition of FGF R (FGF R): poor inhibitor; PAR-1 induced vascular leak in mice [3]: inhibited; serine phosphorylation of MLC induced by thrombin (myosin light chain (MLC)): did not affect
